Results published in patent publication EP4796530A1 (Biocells (Beijing) Biotech Co., Ltd., priority 2023, dated 2025).

What was measured:
hERG potassium channel = target: T1, hERG potassium channel (Homo sapiens, UniProt Q12809); experiment: hERG inhibition, automated patch clamp (QPatch 48X) in HEK-293 cells stably expressing hERG; type: cell-based; conditions: HEK-293 cells stably expressing hERG potassium channel, read-out: hERG inhibition rate; for inhibition at 1 µM: pH 7.4, 1 µM; for inhibition at 10 µM: pH 7.4, 10 µM
T1 construct: host or cells: HEK-293 stably expressing hERG
Protocol: The culture temperature was 37 °C, and the carbon dioxide concentration was 5%.
Cell passage: The old medium was removed, and the cells were washed once with PBS. […] Once the cells were detached from the bottom of the dish, approximately 5 mL of complete medium pre-warmed at 37 °C was added. The cell suspension was gently triturated with a pipette to dissociate aggregated cells. The cell suspension was transferred to a sterile centrifuge tube and centrifuged at 1000 rpm for 5 min to collect the cells. For expansion or maintenance, the cells were seeded into 10 cm cell culture dishes at a density of 6×10^5 cells per cell culture dish (final volume: 5 mL).
Medium was added to terminate digestion, followed by centrifugation. The cells were then resuspended and counted. The cell density was adjusted to 2-3×10^6 cells/mL. Subsequently, the cells were gently mixed for 15-20 min on a balance shaker at room temperature, and then loaded for detection.
In this study, the automated patch clamp QPatch 48X (Sophion) system was used for electrophysiological detection.
First, the prepared cells were placed on the centrifuge of the Qpatch workstation. The cells were washed with multiple centrifugation/suspension cycles, and the cell culture medium was replaced with extracellular fluid. One MTP-96 plate was retrieved and placed at the MTP source position. The QPlate chip was retrieved and placed at the QPlate source position. The robotic arm scanned the barcodes of MTP-96 plate and QPlate chip, and transferred them to the measurement station. The intracellular fluid and extracellular fluid were aspirated from the reservoir and added to the intracellular fluid pool and the pool of cell and compound of the QPlate chip, respectively. At the measurement station, all measurement sites on the QPlate experienced initial quality control. The quality control process involved aspirating the cell suspension from the cell container of the centrifuge, positioning the cells onto the chip wells via a pressure controller, and establishing high-resistance seal to form a whole-cell recording mode. Once a stable control current baseline was obtained, the test substances can be sequentially aspirated from the test substance MTP-96 plate in order of concentration and applied to the cells.
The voltage stimulation protocol for whole-cell patch-clamp recording of hERG current was as follows: after the whole-cell seal was formed, the cell membrane voltage was clamped at -80 mV. The clamped voltage was depolarized from -80 mV to -50 mV and maintained for 0.5 s (as leak current detection), then stepped to 30 mV and maintained for 2.5 s, and then rapidly returned to -50 mV and maintained for 4 s, whereby tail current of the hERG channel can be elicited. Data was collected repeatedly every 10 s to observe the effect of the drug on hERG tail current. Experimental data was collected by the QPatch screening workstation and stored in the database server.
For each drug concentration, a two-dose regimen was set for a duration of at least 5 min. For each cell, the current detected in the compound-free extracellular fluid served as self-controls, and two cells were detected in independent replicates. All electrophysiological experiments were conducted at room temperature.
The second of the two dosages was used for data analysis. For each drug concentration, the average of the last three data points prior to the next drug concentration was taken to represent the current value for the drug concentration. The current value representing each drug concentration was normalized against the reference current value used as a blank control, and then the inhibition rate corresponding to each drug concentration was calculated.

NLRP3 = NLRP3 (Mus musculus, UniProt Q8R4B8); experiment: Inhibition of APOE peptide-induced NLRP3 activation in J774A.1 cells, IL-1β release; type: cell-based; parameters: The mouse macrophage cell line J774A.1 was used, and LPS was used as the first signal; host or cells: J774A.1 mouse monocyte-macrophage cell line; conditions: J774.A1, 10 µM compound, 30 µg/mL APOE peptide
Protocol: J774A.1 cells were plated in a 48-well plate at a density of 1.0×10^6 cells/mL, with 300 µL per well. Subsequently, NLRP3 was activated by APOE peptide. The cell culture medium comprises: DMEM (brand: Gibco, Cat. No.: C12430500) + 10% fetal bovine serum (brand: Gibco, Cat. No.: 10099-141) + 1% sodium pyruvate (brand: Gibco, Cat. No.: 11360-070) + 1% penicillin-streptomycin solution (brand: Solarbio, Cat. No.: P1400). The J774A.1 mouse monocyte-macrophage cell line was purchased from the Cell Resource Center of the Institute of Basic Medical Sciences of Chinese Academy of Medical Sciences (Resource No. 1101MOU-PUMC000222). APOE2/3 peptide 1-151 was obtained through recombinant protein expression and purification by Biocells (Beijing) Biotech Co., Ltd. The procedures were as follows: the sequence (SEQ ID NO: 1) shown below was inserted into the pET-28A plasmid and transformed into BL-21(DE3) expression strain; the expression of target protein was induced with IPTG at a low temperature; after collecting the bacteria via centrifugation, ultrasonic disruption was performed; and after centrifugation, the supernatant was purified by nickel ion affinity chromatography (AKTA pure), and then the product was concentrated by ultrafiltration and identified by BCA+protein electrophoresis. Sequence: [formula]
Experimental groups: a negative control group, an APOE treatment control group, and an example compound experimental group.
After the plated J774A.1 cells adhering to the plate, the culture medium was replaced. The culture medium of the APOE treatment control group was replaced with cell culture medium containing 30 µg/mL APOE peptide, the culture medium of the example compound experimental group was replaced with culture medium containing 30 µg/mL APOE peptide combined with the compounds, and the negative control group received cell culture medium. Then, all the groups were incubated overnight. 18 h later, the cell supernatants were collected for IL-1β detection.
Activation of NLRP3 by APOE peptide will result in release of mature IL-1β, and the release can be inhibited by NLRP3 inhibitors. Therefore, the relative change in the amount of IL-1β release may directly reflect NLRP3 inhibitory effect.
In this experimental example, effective inhibition refers to a reduction of 70% or more in the release amount, compared with the release amount of the positive control minus the negative control.

Chain of NLRP3 (Q8R4B8 whole entry): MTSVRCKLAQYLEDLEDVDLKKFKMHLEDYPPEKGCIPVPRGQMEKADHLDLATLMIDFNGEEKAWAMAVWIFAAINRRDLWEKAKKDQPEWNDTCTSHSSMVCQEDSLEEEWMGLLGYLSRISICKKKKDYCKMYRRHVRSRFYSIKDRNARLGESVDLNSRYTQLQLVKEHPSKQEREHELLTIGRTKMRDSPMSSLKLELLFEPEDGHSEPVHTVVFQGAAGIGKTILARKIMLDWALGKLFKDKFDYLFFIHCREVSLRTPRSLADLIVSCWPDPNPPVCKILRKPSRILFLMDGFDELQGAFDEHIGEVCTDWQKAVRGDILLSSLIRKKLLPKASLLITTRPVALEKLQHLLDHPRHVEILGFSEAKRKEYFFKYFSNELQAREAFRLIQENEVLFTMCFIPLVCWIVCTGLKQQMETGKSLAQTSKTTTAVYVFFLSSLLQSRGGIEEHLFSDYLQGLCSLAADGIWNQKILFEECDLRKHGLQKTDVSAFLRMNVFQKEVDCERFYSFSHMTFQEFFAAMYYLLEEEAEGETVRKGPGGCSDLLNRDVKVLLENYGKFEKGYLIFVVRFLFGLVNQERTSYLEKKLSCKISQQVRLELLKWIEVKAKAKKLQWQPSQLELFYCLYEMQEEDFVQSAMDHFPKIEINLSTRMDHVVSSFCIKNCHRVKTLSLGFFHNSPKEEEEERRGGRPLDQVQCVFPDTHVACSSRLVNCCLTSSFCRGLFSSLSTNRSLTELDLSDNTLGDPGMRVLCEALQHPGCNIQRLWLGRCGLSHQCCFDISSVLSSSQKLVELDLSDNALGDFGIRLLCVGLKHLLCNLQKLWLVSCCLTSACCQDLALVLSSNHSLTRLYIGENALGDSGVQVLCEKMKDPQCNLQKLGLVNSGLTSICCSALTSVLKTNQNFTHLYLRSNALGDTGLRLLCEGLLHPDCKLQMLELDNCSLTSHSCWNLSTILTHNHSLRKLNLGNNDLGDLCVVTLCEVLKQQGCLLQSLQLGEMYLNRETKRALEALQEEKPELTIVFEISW
T1 sequence (Q12809 whole entry): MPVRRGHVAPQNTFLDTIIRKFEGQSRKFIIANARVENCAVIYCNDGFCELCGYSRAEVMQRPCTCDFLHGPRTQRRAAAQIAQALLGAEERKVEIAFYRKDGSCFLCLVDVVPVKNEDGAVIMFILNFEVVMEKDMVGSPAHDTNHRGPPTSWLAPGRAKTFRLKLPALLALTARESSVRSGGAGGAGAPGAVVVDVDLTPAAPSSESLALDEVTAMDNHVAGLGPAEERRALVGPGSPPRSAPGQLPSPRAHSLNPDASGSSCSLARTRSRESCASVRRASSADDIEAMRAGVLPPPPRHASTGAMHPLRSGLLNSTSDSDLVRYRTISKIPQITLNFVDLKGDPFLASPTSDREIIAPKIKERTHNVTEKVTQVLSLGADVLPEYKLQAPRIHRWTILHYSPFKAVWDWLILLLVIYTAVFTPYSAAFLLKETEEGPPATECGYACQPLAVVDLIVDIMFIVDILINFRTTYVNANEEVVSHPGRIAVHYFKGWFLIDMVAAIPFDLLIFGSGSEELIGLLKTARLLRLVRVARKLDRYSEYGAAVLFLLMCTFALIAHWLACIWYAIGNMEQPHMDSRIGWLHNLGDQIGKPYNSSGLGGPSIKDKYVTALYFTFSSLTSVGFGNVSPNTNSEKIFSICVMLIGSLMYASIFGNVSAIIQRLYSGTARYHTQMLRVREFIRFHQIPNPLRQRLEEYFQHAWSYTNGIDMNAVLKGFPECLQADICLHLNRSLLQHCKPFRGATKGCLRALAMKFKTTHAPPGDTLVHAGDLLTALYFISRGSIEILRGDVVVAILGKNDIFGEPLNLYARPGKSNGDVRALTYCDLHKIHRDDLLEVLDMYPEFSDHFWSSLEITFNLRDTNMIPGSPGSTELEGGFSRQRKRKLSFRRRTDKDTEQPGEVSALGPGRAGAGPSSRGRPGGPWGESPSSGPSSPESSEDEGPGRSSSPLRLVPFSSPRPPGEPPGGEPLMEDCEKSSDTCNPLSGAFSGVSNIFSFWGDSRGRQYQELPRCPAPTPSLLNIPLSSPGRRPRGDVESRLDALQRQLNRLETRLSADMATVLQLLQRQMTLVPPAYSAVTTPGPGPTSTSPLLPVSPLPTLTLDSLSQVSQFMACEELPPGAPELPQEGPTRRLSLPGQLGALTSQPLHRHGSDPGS

Compound	inhibition at 1 µM (hERG potassium channel) [%]	inhibition at 10 µM (hERG potassium channel) [%]	inhibition at 10 µM (NLRP3) [%]
CN(C)Cc1cc(S(=O)(=O)NC(=O)Nc2c3c(cc4c2CCC4)CCC3)ccc1O [Example 5, 3-((dimethylamino)methyl)-N-((1,2,3,5,6,7-hexahydro-s-indacen-4-yl)carbamoyl)-4-hydroxybenzenesulfonamide]	0.28	-0.61	≥ 70
CN(C)Cc1cccc(S(=O)(=O)NC(=O)Nc2c3c(cc4c2CCC4)CCC3)c1N [Example 19, 2-amino-3-((dimethylamino)methyl)-N-((1,2,3,5,6,7-hexahydro-s-indacen-4-yl)carbamoyl)benzenesulfonamide]	0.3	2.96	≥ 70
COc1ccc(S(=O)(=O)NC(=O)Nc2c3c(cc4c2CCC4)CCC3)cc1CN(C)C [Example 3, 3-((dimethylamino)methyl)-N-((1,2,3,5,6,7-hexahydro-s-indacen-4-yl)carbamoyl)-4-methoxybenzenesulfonamide]	0.45	1.56	≥ 70
